Measurements reported in patent publication US4504580A, “Antibiotics produced by fermentation of a novel strain of Streptomyces hygroscopicus” (Bristol-Myers Company, priority 1983, dated 1985).
Values after ≈ are worked out from the molar mass of the structure shown. Where two headings read alike, the source gives them in different places.

Tests used:
Type in all cases: cell-based
[1] = system: Pseudomonas aeruginosa D15; experiment: MIC by serial two-fold agar dilution, P. aeruginosa D15; details: Pseudomonas aeruginosa, D15
Protocol: (§1) The minimum inhibitory concentrations (MIC) of Bu-2659A, B, C, D and E were determined for a variety of gram-positive and gram-negative bacteria by the serial two-fold agar dilution method using the Steer's multi-inoculating apparatus. The inoculum was standardized as a 10^4 dilution of an overnight culture of the test organisms in Heart Infusion Broth (Difco). […] Reference antibiotics utilized in these tests included commercially available neomycin as well as its components, neomycins B and C [as used herein, the term "neomycin" means the commercial product containing neomycins B and C at an approximate ratio of 7:3], paromomycin [the commercial product containing >90% of paromomycin I and <10% of paromomycin II] and ribostamycin.

Proteus mirabilis A9906 = experiment: MIC by serial two-fold agar dilution, P. mirabilis A9906; details: Proteus mirabilis, A9906
Protocol: as §1

Proteus vulgaris A9436 = experiment: MIC by serial two-fold agar dilution, P. vulgaris A9436; details: Proteus vulgaris, A9436
Protocol: as §1

Escherichia coli NIHJ = experiment: MIC by serial two-fold agar dilution, E. coli NIHJ; details: Escherichia coli
Protocol: as §1

[2] = system: Klebsiella pneumoniae D11; experiment: MIC by serial two-fold agar dilution, K. pneumoniae D11; details: Klebsiella pneumoniae, D11
Protocol: as §1

[3] = system: Bacillus subtilis PCI 219; experiment: MIC by serial two-fold agar dilution, B. subtilis PCI 219; details: Bacillus subtilis, PCI219
Protocol: as §1

Micrococcus flavus D12 = experiment: MIC by serial two-fold agar dilution, M. flavus D12; details: Micrococcus flavus, D12
Protocol: as §1

[4] = system: Staphylococcus aureus D136; experiment: MIC by serial two-fold agar dilution, S. aureus D136; details: Staphylococcus aureus, D136
Protocol: as §1

[5] = system: Serratia marcescens A20019; experiment: MIC by serial two-fold agar dilution, S. marcescens A20019; details: Serratia marcescens, A20019
Protocol: as §1

Proteus morganii A9553 = experiment: MIC by serial two-fold agar dilution, P. morganii A9553; details: Morganella morganii, A9553
Protocol: as §1

[6] = system: Pseudomonas aeruginosa A9930; experiment: MIC by serial two-fold agar dilution, P. aeruginosa A9930; details: Pseudomonas aeruginosa, A9930
Protocol: as §1

Proteus rettgeri A15167 = experiment: MIC by serial two-fold agar dilution, P. rettgeri A15167; details: Providencia rettgeri, A15167
Protocol: as §1

[7] = system: Micrococcus luteus PCI 1001; experiment: MIC by serial two-fold agar dilution, M. luteus PCI 1001; details: Micrococcus luteus, PCI1001
Protocol: as §1

[8] = system: Staphylococcus aureus 209P; experiment: MIC by serial two-fold agar dilution, S. aureus 209P; details: Staphylococcus aureus, 209P
Protocol: as §1

Escherichia coli Juhl = experiment: MIC by serial two-fold agar dilution, E. coli Juhl; details: Escherichia coli
Protocol: as §1

Proteus mirabilis A9554 = experiment: MIC by serial two-fold agar dilution, P. mirabilis A9554; details: Proteus mirabilis, A9554
Protocol: as §1

[9] = system: Staphylococcus aureus Smith; experiment: MIC by serial two-fold agar dilution, S. aureus Smith; details: Staphylococcus aureus
Protocol: as §1

[10] = system: gram-positive and gram-negative bacteria; experiment: In vitro antibacterial spectra (MIC), overall comparison, Table 7; details: Table 7 organisms; for activity relative to Bu-2659A: as active as Bu-2659A
Protocol: as §1

[11] = Table 7, Mueller-Hinton agar, read-out: MIC

Structure (SMILES)	MIC [1, 11]	MIC (Proteus mirabilis A9906; [11])	MIC (Proteus vulgaris A9436; [11])	MIC (Escherichia coli NIHJ; [11])	MIC [2, 11]	MIC [3, 11]	MIC (Micrococcus flavus D12; [11])	MIC [4, 11]	MIC [5, 11]	MIC (Proteus morganii A9553; [11])	MIC [6, 11]	MIC (Proteus rettgeri A15167; [11])	MIC [7, 11]	MIC [8, 11]	MIC (Escherichia coli Juhl; [11])	MIC (Proteus mirabilis A9554; [11])	MIC [9, 11]	activity relative to Bu-2659A [10]	further results
NC[C@@H]1O[C@H](O[C@H]2[C@@H](O)[C@H](O[C@@H]3[C@@H](O)[C@H](N)C[C@H](N)[C@H]3O[C@H]3O[C@H](CN)[C@@H](O)[C@H](O)[C@H]3N)O[C@@H]2CO)[C@H](N)[C@@H](O)[C@@H]1O [Neomycin B, neomycin B]																			MIC [1]: 3.1 µg/mL (≈ 5.04 µM); MIC (Proteus mirabilis A9906): 0.8 µg/mL (≈ 1.3 µM); MIC (Proteus vulgaris A9436): 0.8 µg/mL (≈ 1.3 µM); MIC (Escherichia coli NIHJ): 1.6 µg/mL (≈ 2.6 µM); MIC [2]: 0.2 µg/mL (≈ 0.325 µM); MIC [3]: < 0.05 µg/mL; MIC (Micrococcus flavus D12): 1.6 µg/mL (≈ 2.6 µM); MIC [4]: 0.4 µg/mL (≈ 0.651 µM); MIC [5]: 1.6 µg/mL (≈ 2.6 µM); MIC (Proteus morganii A9553): 3.1 µg/mL (≈ 5.04 µM); MIC [6]: 3.1 µg/mL (≈ 5.04 µM); MIC (Proteus rettgeri A15167): 1.6 µg/mL (≈ 2.6 µM); MIC [7]: 0.8 µg/mL (≈ 1.3 µM); MIC [8]: 0.4 µg/mL (≈ 0.651 µM); MIC (Escherichia coli Juhl): 3.1 µg/mL (≈ 5.04 µM); MIC (Proteus mirabilis A9554): 0.8 µg/mL (≈ 1.3 µM); MIC [9]: 0.4 µg/mL (≈ 0.651 µM)
NC[C@H]1O[C@H](O[C@H]2[C@H](O[C@@H]3O[C@H](CO)[C@@H](O[C@H]4O[C@@H](CO)[C@@H](O)[C@H](O)[C@H]4N)[C@H]3O)[C@@H](O)[C@H](O)C[C@@H]2N)[C@H](N)[C@@H](O)[C@@H]1O [Bu-2659D, 1,6'"-dideamino-1,6'"-dihydroxyneomycin B]	> 100 µg/mL	6.3 µg/mL (≈ 10.2 µM)	3.1 µg/mL (≈ 5.03 µM)	12.5 µg/mL (≈ 20.3 µM)	1.6 µg/mL (≈ 2.59 µM)	1.6 µg/mL (≈ 2.59 µM)	100 µg/mL (≈ 162 µM)	25 µg/mL (≈ 40.5 µM)	100 µg/mL (≈ 162 µM)	12.5 µg/mL (≈ 20.3 µM)	50 µg/mL (≈ 81.1 µM)	3.1 µg/mL (≈ 5.03 µM)	100 µg/mL (≈ 162 µM)	6.3 µg/mL (≈ 10.2 µM)	50 µg/mL (≈ 81.1 µM)	6.3 µg/mL (≈ 10.2 µM)	25 µg/mL (≈ 40.5 µM)		in vitro antibacterial activity, in words [10]: less active than components B and C
NC[C@@H]1O[C@H](O[C@H]2[C@@H](O)[C@H](O[C@@H]3[C@@H](O)[C@H](O)C[C@H](N)[C@H]3O[C@H]3O[C@H](CO)[C@@H](O)[C@H](O)[C@H]3N)O[C@@H]2CO)[C@H](N)[C@@H](O)[C@@H]1O [Bu-2659C, 1-deamino-1-hydroxyparomomycin I]	25 µg/mL (≈ 40.5 µM)	3.1 µg/mL (≈ 5.03 µM)	1.6 µg/mL (≈ 2.59 µM)	6.3 µg/mL (≈ 10.2 µM)	1.6 µg/mL (≈ 2.59 µM)	0.8 µg/mL (≈ 1.3 µM)	> 100 µg/mL	6.3 µg/mL (≈ 10.2 µM)	6.3 µg/mL (≈ 10.2 µM)	6.3 µg/mL (≈ 10.2 µM)	12.5 µg/mL (≈ 20.3 µM)	3.1 µg/mL (≈ 5.03 µM)	> 100 µg/mL	3.1 µg/mL (≈ 5.03 µM)	25 µg/mL (≈ 40.5 µM)	3.1 µg/mL (≈ 5.03 µM)	6.3 µg/mL (≈ 10.2 µM)	approximately 1/4	
NC[C@H]1O[C@H](O[C@H]2[C@H](O[C@@H]3O[C@H](CO)[C@@H](O[C@H]4O[C@H](CN)[C@@H](O)[C@H](O)[C@H]4N)[C@H]3O)[C@@H](O)[C@H](O)C[C@@H]2N)[C@H](N)[C@@H](O)[C@@H]1O [Bu-2659B, 1-deamino-1-hydroxyneomycin C]	> 100 µg/mL	6.3 µg/mL (≈ 10.2 µM)	3.1 µg/mL (≈ 5.04 µM)	12.5 µg/mL (≈ 20.3 µM)	1.6 µg/mL (≈ 2.6 µM)	0.4 µg/mL (≈ 0.65 µM)	> 100 µg/mL	6.3 µg/mL (≈ 10.2 µM)	100 µg/mL (≈ 162 µM)	12.5 µg/mL (≈ 20.3 µM)	> 100 µg/mL	3.1 µg/mL (≈ 5.04 µM)	> 100 µg/mL	3.1 µg/mL (≈ 5.04 µM)	50 µg/mL (≈ 81.2 µM)	6.3 µg/mL (≈ 10.2 µM)	3.1 µg/mL (≈ 5.04 µM)	approximately 1/4	
